What was measured:
normal human lymphocytes = experiment: Proliferation/apoptosis of normal human lymphocytes (cell number per well, flow cytofluorometry); type: cell-based
leukemia L1210 cells [1] = experiment: Leukemia L1210 in mice: ascitic fluid and survival (Example 14); settings: for Accumulation of ascitic (weight gain, %): leukemia L1210; for Mean survival time: mice inoculated with leukemia L1210 cells
[2] = test system: Erlich adenocarcinoma cells; experiment: Erlich adenocarcinoma in mice: ascitic fluid and survival (Example 14); settings: for Accumulation of ascitic (weight gain, %): Erlich adenocarcinoma; for Mean survival time: mice inoculated with Erlich adenocarcinoma cells
Experimental: (§6) An influence of 7 day course of test article daily administration was studied in respect of tumor progression, which was estimated using the two integral indices: pace of mouse weight gain due to accumulation of ascitic fluid, and by animal mean survival time after inoculation.
(§7) The study was carried out on DBA/2 mice weighing 18-21 g. First, tumor cell passage was performed using 6 animals for each cell line. For this, cells kept at the temperature of the liquid nitrogen were de-frozen and adjusted to the concentration of 5×10^6 cells/mL by sterile Hanks' solution. Then, 6 mice were intra peritoneally inoculated with 0.2 mL of each line cellular suspension.
(§8) Ascitic fluid was collected 6 days after the inoculation with L1210 cells, 8 days after the inoculation with P388 ones and 18 days after inoculation with Erlich adenocarcinoma cells. Thus obtained, the samples of passaged tumor cells were used for the main experiments. The fluid liquid was dissolved by sterile Hanks' solution so that cell concentration be 5×10^6 cells/mL for P388 cells and Erlich adenocarcinoma cells, 5×10^5 cells/mL for L1210 cells.
(§9) Eleven groups of animals with no less than 15 mice each were formed for experiments with either tumor cell line. Mice were inoculated with 0.2 mL of resultant cell suspensions per mouse (10^6 P388 and Erlich adenocarcinoma cells/mouse, and 10^5 L1210 cells/mouse). 24 hours after the tumor cells inoculation, animals were given the first injections of the test articles or vehicles. The test article injections were made daily till the 14th day of the experiment or till the animal death. The volume of solutions injected comprised 0.01 mL/g body weight.
(§10) #1—intact animals receiving imitation of tumor cell inoculation (injection of normal saline) which further were treated with normal saline throughout the entire experiment;
(§11) #2—control animals, inoculated with tumor cells, which further were treated with test article vehicle (normal saline);

leukemia L1210 cells [3] = experiment: Leukemia L1210 in mice: serum cytokines, ascitic fluid, survival (Example 5); settings: for Accumulation of ascitic fluid (weight gain) / Concentration in serum: IFNα / Concentration in serum: IL-1 / Concentration in serum: IL-2 / Concentration in serum: IL-6 / Concentration in serum: TNFα: L1210 mice
Experimental: (§12) An influence of 7 day course of test article daily administration was studied in respect of variations of serum cytokine levels (IL-1, IL-2, IL-6, IFNα, TNF). In parallel, the tumor progression was estimated using the two integral indices: pace of mouse weight gain due to accumulation of ascitic fluid, and by animal mean survival time after inoculation.
(§13) The study was carried out on DBA/2 mice weighing 18-21 g. First, tumor cell passage was performed using 6 animals for each cell line. For this, cells kept at the temperature of the liquid nitrogen were de-frozen and adjusted to the concentration of 5×10^6 cells/mL by sterile Hanks' solution. Then, 6 mice were intraperitoneally inoculated with 0.2 mL of each line cellular suspension.
(§14) Ascitic fluid was collected 6 days after the inoculation with L1210 cells and 8 days after the inoculation with P388 ones. Thus obtained, the samples of passaged tumor cells were used for the main experiments. The fluid liquid was dissolved by sterile Hanks' solution so that cell concentration be 5×10^6 cells/mL for P388 cells and 5×10^5 cells/mL for L1210 cells.
(§15) Nine groups of animals with no less than 15 mice each were formed for experiments with either tumor cell line. Mice were inoculated with 0.2 mL of resultant cell suspensions per mouse (10^6 P388 cells/mouse, and 10^5 L1210 cells/mouse). 24 hours after the tumor cells inoculation. animals were given the first injections of the test articles or vehicles. The test article injections were made daily till the 14th day of the experiment or until the animal's death. The volume of solutions injected comprised 0.01 mL/g body weight.
as §10, §11

[4] = test system: e-ras cells after UV-irradiation; experiment: Number of clones of e-ras cells after UV-irradiation; type: cell-based, rat
Experimental: (§1) To this end, these substances had been incubated for 72 hours with cells of rat embrional fibroblasts (REF) and the same cells, transformed with adenoviral E1A gene in complementation with ras-oncogene (e-ras cell line). Subsequent evaluation of the cellularity of experimental samples was carried out by counting the quantity of cell per milliliter (for REF cell line) or clones in dish (for e-ras cell line).
(§2) Cells were cultivated on DMEM medium supplemented with 10% fetal calf serum and […] gentamicin. Cultivation was carried out in Petri dishes.
(§3) E-ras cells were seeded at a cell density of 300 cells per 5 cm dish. 7 days after growth of e-ras cells had been started the quantity of clones was evaluated and the test articles were added into the dishes.
(§4) For the test-system for estimation of apoptosis regulation UV-induced cell death was triggered in a dose of 4 Dj. Test articles were added immediately after irradiation. Then, the quantity of cell per milliliter (for REF cell line) or clones in dish (for e-ras cell line) were monitored every 24 hours. For determination of DNA-fragmentation the electrophoresis in agarose gel was used at standard settings.

[5] = test system: rat embrional fibroblasts (REF); experiment: Number of REF cells throughout 72-hr incubation; type: cell-based
Experimental: as §1, §2
(§5) REF cells was cultivated with initial density of 800 000 cell per mL, evaluation of the cellularity was performed at 0, 24, 48 and 72 hours of incubation with the test articles.
as §4

leukemia P388 cells [6] = experiment: Leukemia P388 in mice: ascitic fluid and survival (Example 14); settings: for Accumulation of ascitic (weight gain, %): leukemia P388; for Mean survival time: mice inoculated with leukemia P388 cells
Experimental: as §6, §7, §8, §9, §10, §11

[7] = test system: e-ras cell line (REF transformed with E1A and ras-oncogene); experiment: Number of clones of e-ras cells throughout 72-hr incubation; type: cell-based, rat
Experimental: as §1, §2, §3, §4

[8] = test system: rat embrional fibroblasts (REF) after UV-irradiation; experiment: Number of REF cells after UV-irradiation; type: cell-based
Experimental: as §1, §2, §5, §4

leukemia P388 cells [9] = experiment: Leukemia P388 in mice: serum cytokines, ascitic fluid, survival (Example 5); settings: for Accumulation of ascitic fluid (weight gain) / Concentration in serum: IFNα / Concentration in serum: IL-1 / Concentration in serum: IL-2 / Concentration in serum: IL-6 / Concentration in serum: TNFα: P388 mice
Experimental: as §12, §13, §14, §15, §10, §11

HL-60 cells = experiment: Proliferation/apoptosis of HL-60 tumor cells (cell number per well, flow cytofluorometry)
Experimental: Subsequent evaluation of the cell cycle parameters was carried out by the flow cytofluorometry technique.
A mononuclear fraction of blood leukocytes were obtained by centrifugation in gradient of fikoll-metrizoat (Histopaque, Sigma). […] Cell viability was estimated by the Trypan blue exclusion method, then the cell suspension was placed into wells of 96-well microtiter plates—200,000 cells per well. […] Cultivation was carried out in closed flasks, the medium volume was 12 mL, it was changed every four days by centrifugation. The nature of the cells growth was suspensive. […] 50 μL of each test solution were added to one or the other cell culture and thereafter cells were cultivated for 24-96 hours. Then, they were tested by the flow cytofluorometry to estimate DNA content in the cell nuclei. In case of apoptosis-like cellular death, the portion of cell nuclei with normal content of DNA became reduced, while the portion of cell nuclei containing abnormally small DNA quantity became larger.
The analysis procedure was the following: after incubation completion, cells were centrifuged and transferred to a standard phosphate isotonic buffer pH 7.4, containing RNA-ase A (20 μg/mL), ethidium bromide (fluorometric indicator for double stranded nucleic acid. 10 μg/mL) and MgCl2 (5 mM). After the cells were disintegrated by nonionic detergent Triton X-100 (final concentration 0.1%). The suspension of cell nuclei thus obtained was analyzed by flow cytofluorometry with an argon laser as a source of light (wave length 488 nm). The red fluorescence due to DNA bound ethidium bromide was taken to be the measure of DNA content in the cell nuclei.

## NCCSSCCN [0.1% cystamine, 2,2′-Dithio-bis[ethylamine]]
Normal human lymphocytes; 24 hours incubation
  number of normal lymphocytes per well: 30 ± 2 × 10^4 cells
Normal human lymphocytes; 48 hours incubation
  number of normal lymphocytes per well: 72 ± 4 × 10^4 cells
Normal human lymphocytes; 72 hours incubation
  number of normal lymphocytes per well: 122 ± 9 × 10^4 cells
Normal human lymphocytes; 96 hours incubation
  number of normal lymphocytes per well: 196 ± 11 × 10^4 cells
Leukemia L1210 cells [1]; number of injection 0
  Accumulation of ascitic (weight gain, %): 0.42 ± 0.3%
Leukemia L1210 cells [1]; number of injection 3
  Accumulation of ascitic (weight gain, %): 8.2 ± 0.6%
Leukemia L1210 cells [1]; number of injection 7
  Accumulation of ascitic (weight gain, %): 24.8 ± 2.1%
Leukemia L1210 cells [1]
  Mean survival time: 10.2 ± 0.8
[2]; number of injection 0
  Accumulation of ascitic (weight gain, %): 0.6 ± 0.2%
[2]; number of injection 3
  Accumulation of ascitic (weight gain, %): 9.2 ± 0.8%
[2]; number of injection 7
  Accumulation of ascitic (weight gain, %): 25.8 ± 1.7%
[2]
  Mean survival time: 10.2 ± 0.8
Leukemia L1210 cells [3]; 0 injections
  Accumulation of ascitic fluid (weight gain): 0.47%
  Concentration in serum: IFNα: 115.0 pg/mL
  Concentration in serum: IL-1: 36.0 pg/mL
  Concentration in serum: IL-2: 16.9 pg/mL
  Concentration in serum: IL-6: 63.0 pg/mL
  Concentration in serum: TNFα: 88.6 pg/mL
Leukemia L1210 cells [3]; 3 daily injections
  Accumulation of ascitic fluid (weight gain): 5.93%
  Concentration in serum: IFNα: 200. pg/mL
  Concentration in serum: IL-1: 47.50 pg/mL
  Concentration in serum: IL-2: 17.30 pg/mL
  Concentration in serum: IL-6: 70.0 pg/mL
  Concentration in serum: TNFα: 185.0 pg/mL
Leukemia L1210 cells [3]; 7 daily injections
  Accumulation of ascitic fluid (weight gain): 21.17%
  Concentration in serum: IFNα: 137.0 pg/mL
  Concentration in serum: IL-1: 28.0 pg/mL
  Concentration in serum: IL-2: 22.8 pg/mL
  Concentration in serum: IL-6: 155.0 pg/mL
  Concentration in serum: TNFα: 213.0 pg/mL
Leukemia L1210 cells [3]; mice inoculated with leukemia L1210 cells, daily injections till day 14 or death
  Mean survival time: 9.53 ± 0.18
[4]; 0 hours
  number of clones of e-ras cells after UV-irradiation (M ± m): 276 ± 4
[4]; 24 hours
  number of clones of e-ras cells after UV-irradiation (M ± m): 181 ± 4
[4]; 48 hours
  number of clones of e-ras cells after UV-irradiation (M ± m): 111 ± 6
[4]; 72 hours
  number of clones of e-ras cells after UV-irradiation (M ± m): 108 ± 3
[5]; 0 hours of incubation
  number of REF cells (M ± m): 822 ± 14 × 10^3 cells
[5]; 24 hours of incubation
  number of REF cells (M ± m): 1523 ± 11 × 10^3 cells
[5]; 48 hours of incubation
  number of REF cells (M ± m): 2486 ± 34 × 10^3 cells
[5]; 72 hours of incubation
  number of REF cells (M ± m): 5048 ± 126 × 10^3 cells
Leukemia P388 cells [6]; number of injection 0
  Accumulation of ascitic (weight gain, %): 0.4 ± 0.3%
Leukemia P388 cells [6]; number of injection 3
  Accumulation of ascitic (weight gain, %): 5.2 ± 0.6%
Leukemia P388 cells [6]; number of injection 7
  Accumulation of ascitic (weight gain, %): 18.8 ± 1.1%
Leukemia P388 cells [6]
  Mean survival time: 20.2 ± 0.3
[7]; 0 hours of incubation
  number of clones of e-ras cells (M ± m): 276 ± 4
[7]; 24 hours of incubation
  number of clones of e-ras cells (M ± m): 281 ± 4
[7]; 48 hours of incubation
  number of clones of e-ras cells (M ± m): 271 ± 6
[7]; 72 hours of incubation
  number of clones of e-ras cells (M ± m): 258 ± 3
[8]; 0 hours
  number of REF cells after UV-irradiation (M ± m): 822 ± 14 × 10^3 cells
[8]; 24 hours
  number of REF cells after UV-irradiation (M ± m): 523 ± 11 × 10^3 cells
[8]; 48 hours
  number of REF cells after UV-irradiation (M ± m): 246 ± 34 × 10^3 cells
[8]; 72 hours
  number of REF cells after UV-irradiation (M ± m): 208 ± 26 × 10^3 cells
Leukemia P388 cells [9]; 0 injections
  Accumulation of ascitic fluid (weight gain): 0.67 ± 0.22%
  Concentration in serum: IFNα: 107 ± 8.06 pg/mL
  Concentration in serum: IL-1: 30.0 ± 4.02 pg/mL
  Concentration in serum: IL-2: 14.9 ± 2.05 pg/mL
  Concentration in serum: IL-6: 72.7 ± 9.10 pg/mL
  Concentration in serum: TNFα: 80.5 ± 7.14 pg/mL
Leukemia P388 cells [9]; 3 daily injections
  Accumulation of ascitic fluid (weight gain): 6.0 ± 0.49%
  Concentration in serum: IFNα: 216. ± 19.08 pg/mL
  Concentration in serum: IL-1: 41.5 ± 5.81 pg/mL
  Concentration in serum: IL-2: 15.25 ± 1.80 pg/mL
  Concentration in serum: IL-6: 184.0 ± 15.6 pg/mL
  Concentration in serum: TNFα: 204. ± 16.1 pg/mL
Leukemia P388 cells [9]; 7 daily injections
  Accumulation of ascitic fluid (weight gain): 19.9 ± 1.67%
  Concentration in serum: IFNα: 315. ± 9.80 pg/mL
  Concentration in serum: IL-1: 22.3 ± 3.0 pg/mL
  Concentration in serum: IL-2: 20.18 ± 2.50 pg/mL
  Concentration in serum: IL-6: 170.6 ± 14.3 pg/mL
  Concentration in serum: TNFα: 220. ± 19.1 pg/mL
Leukemia P388 cells [9]; mice inoculated with leukemia P388 cells, daily injections till day 14 or death
  Mean survival time: 9.93 ± 0.27
HL-60 cells; 24 hours incubation
  number of HL-60 cells per well: 112 ± 10 × 10^4 cells
HL-60 cells; 48 hours incubation
  number of HL-60 cells per well: 182 ± 9 × 10^4 cells
HL-60 cells; 72 hours incubation
  number of HL-60 cells per well: 465 ± 11 × 10^4 cells
HL-60 cells; 96 hours incubation
  number of HL-60 cells per well: 618 ± 19 × 10^4 cells

## C[S+](C)[O-] [7% DMSO]
Leukemia L1210 cells [1]; number of injection 0
  Accumulation of ascitic (weight gain, %): 0.51 ± 0.1%
Leukemia L1210 cells [1]; number of injection 3
  Accumulation of ascitic (weight gain, %): 6.4 ± 1.4%
Leukemia L1210 cells [1]; number of injection 7
  Accumulation of ascitic (weight gain, %): 23.6 ± 2.6%
Leukemia L1210 cells [1]
  Mean survival time: 10.2 ± 0.8
[2]; number of injection 0
  Accumulation of ascitic (weight gain, %): 0.5 ± 0.2%
[2]; number of injection 3
  Accumulation of ascitic (weight gain, %): 11.4 ± 1.1%
[2]; number of injection 7
  Accumulation of ascitic (weight gain, %): 24.6 ± 2.2%
[2]
  Mean survival time: 10.3 ± 1.8
[4]; 0 hours
  number of clones of e-ras cells after UV-irradiation (M ± m): 268 ± 11
[4]; 24 hours
  number of clones of e-ras cells after UV-irradiation (M ± m): 171 ± 2
[4]; 48 hours
  number of clones of e-ras cells after UV-irradiation (M ± m): 108 ± 8
[4]; 72 hours
  number of clones of e-ras cells after UV-irradiation (M ± m): 103 ± 6
[5]; 0 hours of incubation
  number of REF cells (M ± m): 801 ± 12 × 10^3 cells
[5]; 24 hours of incubation
  number of REF cells (M ± m): 1420 ± 17 × 10^3 cells
[5]; 48 hours of incubation
  number of REF cells (M ± m): 2651 ± 36 × 10^3 cells
[5]; 72 hours of incubation
  number of REF cells (M ± m): 5298 ± 39 × 10^3 cells
Leukemia P388 cells [6]; number of injection 0
  Accumulation of ascitic (weight gain, %): 0.5 ± 0.1%
Leukemia P388 cells [6]; number of injection 3
  Accumulation of ascitic (weight gain, %): 5.4 ± 1.4%
Leukemia P388 cells [6]; number of injection 7
  Accumulation of ascitic (weight gain, %): 19.6 ± 1.6%
Leukemia P388 cells [6]
  Mean survival time: 20.6 ± 1.8
[7]; 0 hours of incubation
  number of clones of e-ras cells (M ± m): 268 ± 11
[7]; 24 hours of incubation
  number of clones of e-ras cells (M ± m): 271 ± 2
[7]; 48 hours of incubation
  number of clones of e-ras cells (M ± m): 268 ± 8
[7]; 72 hours of incubation
  number of clones of e-ras cells (M ± m): 243 ± 6
[8]; 0 hours
  number of REF cells after UV-irradiation (M ± m): 801 ± 12 × 10^3 cells
[8]; 24 hours
  number of REF cells after UV-irradiation (M ± m): 420 ± 17 × 10^3 cells
[8]; 48 hours
  number of REF cells after UV-irradiation (M ± m): 251 ± 36 × 10^3 cells
[8]; 72 hours
  number of REF cells after UV-irradiation (M ± m): 208 ± 39 × 10^3 cells

## NCCSSCCNC(=O)CNC(=O)C(CSSCC(NC(=O)CCC(N)C(=O)O)C(=O)NCC(=O)O)NC(=O)CCC(N)C(=O)O (stereo not shown) [S-thioeethylamine-GSSG + normal saline]
Leukemia P388 cells [6]; number of injection 0
  Accumulation of ascitic (weight gain, %): 0.7 ± 0.2%
Leukemia P388 cells [6]; number of injection 3
  Accumulation of ascitic (weight gain, %): 2.1 ± 0.4%
Leukemia P388 cells [6]; number of injection 7
  Accumulation of ascitic (weight gain, %): 8.2 ± 1.2%
Leukemia P388 cells [6]
  Mean survival time: 28.2 ± 0.8

Reference: patent US6492329B1, “Cytokine and hemopoietic factor endogenous production enhancer and methods of use thereof” (Novelos Therapeutics, Inc., priority 1995, dated 2002)
